Data taken from patent US5196094A, “Separation of 1,1,1-trichloroethane from the lower alcohols by extractive distillation” (priority 1991, dated 1993).
Where a name gives a salt, the structure may show the parent alone.

Legend:
Type in all cases: physicochemical
[1] = Vapor-liquid equilibrium still, separation of 1,1,1-trichloroethane from methanol
[2] = Vapor-liquid equilibrium still, separation of 1,1,1-trichloroethane from ethanol
[3] = Vapor-liquid equilibrium still, separation of 1,1,1-trichloroethane from 2-butanol
[4] = Vapor-liquid equilibrium still, separation of 1,1,1-trichloroethane from isopropanol
[5] = Vapor-liquid equilibrium still, separation of 1,1,1-trichloroethane from n-propanol
[6] = 1,1,1-trichloroethane from methanol, vapor-liquid equilibrium still
[7] = * Brings out Ethanol as Overhead
[8] = 1,1,1-trichloroethane from 2-butanol, vapor-liquid equilibrium still
[9] = 1,1,1-trichloroethane from ethanol
[10] = 1,1,1-trichloroethane from n-propanol, vapor-liquid equilibrium still

Molecule: 1-Methoxy-2-acetoxy propanol
- Relative Volatility [1, 6]: 2.3

Molecule: CC(=O)O[C@@H]1C[C@H]2CC[C@]1(C)C2(C)C (racemic) [Isobornyl acetate]
- Relative Volatility [2, 7]: 1.6
- Relative Volatility [3]: 1.7
- Relative Volatility [1]: 2.5

Molecule: COCC(C)OC(C)=O (centres unmarked) [1-Methoxy-2-acetoxy propane]
- Relative Volatility [3, 8]: 2.0

Molecule: COCC(C)OC(C)=O (centres unmarked) [1-Methoxy-2-propanol acetate]
- Relative Volatility [3, 8]: 4.3
- Relative Volatility [1]: 1.7
- Relative Volatility [4]: 1.7

Molecule: COCC(C)O (centres unmarked) [1-Methoxy-2-propanol]
- Relative Volatility [2, 9]: 2.9

Molecule: CN1CCCC1=O [1-Methyl-2-pyrrolidinone]
- Relative Volatility [2, 9]: 2.5
- Relative Volatility [3, 8]: 3.6
- Relative Volatility [1]: 2.7

Molecule: CCC[N+](=O)[O-] [1-Nitropropane]
- Relative Volatility [3]: 1.6
- Relative Volatility [1, 6]: 2.1
- Relative Volatility [5]: 1.3

Molecule: CC(=O)CC(C)=O [2,4-Pentanedione]
- Relative Volatility [3]: 1.8
- Relative Volatility [1]: 2.7
- Relative Volatility [5]: 1.6

Molecule: CC(C)CC(=O)CC(C)C [2,6-Dimethyl-4-heptanone]
- Relative Volatility [2, 9]: 1.65

Molecule: CCC(CC)CO [2-Ethyl butanol]
- Relative Volatility [3, 8]: 3.3
- Relative Volatility [1]: 1.4

Molecule: CCCCC(CC)COC(C)=O (centres unmarked) [2-Ethyl hexyl acetate]
- Relative Volatility [3]: 1.6
- Relative Volatility [1, 6]: 2.0
- Relative Volatility [4]: 1.3

Molecule: CCCCCC(C)=O [2-Heptanone]
- Relative Volatility [2, 9]: 1.3
- Relative Volatility [3]: 1.4
- Relative Volatility [1, 6]: 3.2

Molecule: CCC(C)COC(C)=O (centres unmarked) [2-Methyl butyl acetate]
- Relative Volatility [4]: 1.35

Molecule: CC(C)[N+](=O)[O-] [2-Nitropropane]
- Relative Volatility [3]: 1.6
- Relative Volatility [1, 6]: 2.0
- Relative Volatility [5]: 1.4

Molecule: CCCCCCC(C)O (centres unmarked) [2-Octanol]
- Relative Volatility [3, 8]: 2.6
- Relative Volatility [1, 6]: 2.8

Molecule: CCCCCCC(C)=O [2-Octanone]
- Relative Volatility [5]: 1.25

Molecule: CCCCCCCCCC(C)=O [2-Undecanone]
- Relative Volatility [2, 9]: 1.4

Molecule: CC(=O)C(C)(C)C [3,3-Dimethyl-2-butanone]
- Relative Volatility [2, 9]: 1.65
- Relative Volatility [5]: 1.4

Molecule: CCCCC(=O)CC [3-Heptanone]
- Relative Volatility [5]: 1.25

Molecule: CC(C)CCO [3-Methyl-1-butanol]
- Relative Volatility [2, 9]: 2.9

Molecule: CC(=O)OC(C)CC(C)C (centres unmarked) [4-Methyl pentyl acetate-2]
- Relative Volatility [2, 7]: 1.45
- Relative Volatility [3, 8]: 1.7
- Relative Volatility [1, 6]: 2.9

Molecule: CC(C)CC(C)O (centres unmarked) [4-Methyl-2-pentanol]
- Relative Volatility [2, 9]: 2.1
- Relative Volatility [3, 8]: 3.2
- Relative Volatility [1, 6]: 4.2

Molecule: CC(=O)CC(C)C [4-Methyl-2-pentanone]
- Relative Volatility [2, 9]: 1.6
- Relative Volatility [5]: 1.4

Molecule: CC(=O)CCC(C)C [5-Methyl-2-hexanone]
- Relative Volatility [5, 10]: 1.3

Molecule: CC(=O)c1ccccc1 [Acetophenone]
- Relative Volatility [2, 9]: 1.35
- Relative Volatility [3]: 3.0
- Relative Volatility [1, 6]: 2.3
- Relative Volatility [5]: 1.7

Molecule: N#CCCCCC#N [Adiponitrile]
- Relative Volatility [4]: 1.25

Molecule: CCCCCOC(C)=O [Amyl acetate]
- Relative Volatility [3]: 1.5
- Relative Volatility [1, 6]: 2.1
- Relative Volatility [4]: 1.4

Molecule: COc1ccccc1 [Anisole]
- Relative Volatility [2, 7]: 1.25

Molecule: OCc1ccccc1 [Benzyl alcohol]
- Relative Volatility [3, 8]: 3.5

Molecule: O=C(OCc1ccccc1)c1ccccc1 [Benzyl benzoate]
- Relative Volatility [5, 10]: 1.6

Molecule: CC(=O)CC(C)(C)O [Diacetone alcohol]
- Relative Volatility [2, 9]: 2.7

Molecule: CCOCCOCCOCC [Diethylene glycol diethyl ether]
- Relative Volatility [2, 7]: 1.2
- Relative Volatility [3]: 1.6
- Relative Volatility [1]: 2.7
- Relative Volatility [5]: 1.6

Molecule: CCOCCOCCOC(C)=O [Diethylene glycol ethyl ether acetate]
- Relative Volatility [3, 8]: 2.1
- Relative Volatility [1, 6]: 2.8

Molecule: CC(C)CC(O)CC(C)C [Diisobutyl carbinol]
- Relative Volatility [3]: 2.2

Molecule: CC(C)CC(=O)CC(C)C [Diisobutyl ketone]
- Relative Volatility [2, 9]: 1.7
- Relative Volatility [3]: 1.5
- Relative Volatility [1]: 2.7

Molecule: CCOCCC(=O)OCC [Ethyl 3-ethoxy propionate]
- Relative Volatility [2, 9]: 1.6

Molecule: CCOC(=O)CC(C)=O [Ethyl acetoacetate]
- Relative Volatility [2, 9]: 1.7
- Relative Volatility [3]: 1.8
- Relative Volatility [1, 6]: 2.8

Molecule: CCOC(=O)c1ccccc1 [Ethyl benzoate]
- Relative Volatility [2, 9]: 1.55

Molecule: CCCC(=O)OCC [Ethyl butyrate]
- Relative Volatility [2, 7]: 1.2
- Relative Volatility [4]: 1.3

Molecule: CCOC(=O)Cc1ccccc1 [Ethyl phenyl acetate]
- Relative Volatility [2, 7]: 1.5

Molecule: CCOCCOC(C)=O [Ethylene glycol ethyl ether acetate]
- Relative Volatility [2, 7]: 1.5
- Relative Volatility [1]: 2.5

Molecule: CCCCCCOCCO [Ethylene glycol hexyl ether]
- Relative Volatility [3]: 2.9
- Relative Volatility [1]: 3.1

Molecule: CCCCCCCO [Heptyl alcohol]
- Relative Volatility [3]: 3.1
- Relative Volatility [1]: 3.6

Molecule: CCCCCCOC(C)=O [Hexyl acetate]
- Relative Volatility [3]: 1.6
- Relative Volatility [4]: 1.35

Molecule: CC(=O)OCCC(C)C [Isoamyl acetate]
- Relative Volatility [2, 9]: 1.25

Molecule: CC(=O)OCC(C)C [Isobutyl acetate]
- Relative Volatility [4]: 1.35

Molecule: CC(C)CCCCCCCO [Isodecyl alcohol]
- Relative Volatility [3, 8]: 2.4
- Relative Volatility [1, 6]: 2.3

Molecule: CC(C)CCCCCO [Isooctyl alcohol]
- Relative Volatility [2, 9]: 2.1
- Relative Volatility [3, 8]: 2.4
- Relative Volatility [1]: 2.5

Molecule: CC(=O)OC(C)C [Isopropyl acetate]
- Relative Volatility [2, 9]: 1.6

Molecule: COC(=O)c1ccccc1 [Methyl benzoate]
- Relative Volatility [5]: 1.25

Molecule: CC(=O)CCC(C)C [Methyl isoamyl ketone]
- Relative Volatility [2, 9]: 2.0
- Relative Volatility [3, 8]: 1.6
- Relative Volatility [1, 6]: 2.3

Molecule: CC(=O)CC(C)C [Methyl isobutyl ketone]
- Relative Volatility [2, 9]: 1.85
- Relative Volatility [5]: 1.5

Molecule: O=[N+]([O-])c1ccccc1 [Nitrobenzene]
- Relative Volatility [3]: 1.6
- Relative Volatility [1]: 2.5
- Relative Volatility [5]: 1.4

Molecule: CC[N+](=O)[O-] [Nitroethane]
- Relative Volatility [1]: 2.8
- Relative Volatility [4]: 1.3

Molecule: CC(=O)Oc1ccccc1 [Phenyl acetate]
- Relative Volatility [4]: 1.25

Molecule: COCC(C)OC(C)=O (centres unmarked) [Propylene glycol methyl ether acetate]
- Relative Volatility [3]: 1.8
- Relative Volatility [1, 6]: 2.3

Molecule: OCC1CCCO1 (centres unmarked) [Tetrahydro furfuryl alcohol]
- Relative Volatility [2, 9]: 2.3
- Relative Volatility [3, 8]: 3.2
- Relative Volatility [1, 6]: 3.3

Molecule: CCCCCOC(C)=O [n-Amyl acetate]
- Relative Volatility [2, 7]: 1.85

Molecule: CCCCOC(C)=O [n-Butyl acetate]
- Relative Volatility [2, 7]: 3.5

Molecule: CCCCCCCCCCO [n-Decanol]
- Relative Volatility [3, 8]: 2.3
- Relative Volatility [1]: 2.5

Molecule: CCCCCCOC=O [n-Hexyl formate]
- Relative Volatility [2, 9]: 1.4
- Relative Volatility [3]: 1.5
- Relative Volatility [1]: 1.7

Molecule: CCCOC(C)=O [n-Propyl acetate]
- Relative Volatility [2, 9]: 1.85

Molecule: Dipropylene glycol methyl ether
- Relative Volatility [2, 9]: 1.85
- Relative Volatility [1, 6]: 4.3

Molecule: Tripropylene glycol methyl ether
- Relative Volatility [1, 6]: 3.2
